Data taken from BindingDB's records for PubMed 9353361 (National Institute of Diabetes and Digestive and Kidney …, 1997).
Where “and” joins values, the source holds several entries; their conditions need not be identical. Equal values may be shown once.

Target: Gamma-aminobutyric acid receptor subunit alpha-5 (Rattus norvegicus, UniProt P19969)
Sequence (P19969 whole entry): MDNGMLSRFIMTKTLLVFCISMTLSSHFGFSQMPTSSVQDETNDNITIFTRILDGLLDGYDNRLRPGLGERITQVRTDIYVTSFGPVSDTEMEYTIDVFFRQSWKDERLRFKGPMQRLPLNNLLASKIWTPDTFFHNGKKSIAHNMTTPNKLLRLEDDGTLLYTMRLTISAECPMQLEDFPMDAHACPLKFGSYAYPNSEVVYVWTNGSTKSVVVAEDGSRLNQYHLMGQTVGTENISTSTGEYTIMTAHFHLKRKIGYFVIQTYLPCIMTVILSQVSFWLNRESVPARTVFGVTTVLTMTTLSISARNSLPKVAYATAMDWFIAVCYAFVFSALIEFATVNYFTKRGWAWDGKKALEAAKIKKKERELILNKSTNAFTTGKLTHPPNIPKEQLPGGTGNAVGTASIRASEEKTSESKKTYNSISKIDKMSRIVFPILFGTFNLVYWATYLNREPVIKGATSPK

Row | SMILES | Ki
1 | CN1C(=O)CN=C(c2ccccc2)c2cc(C#N)ccc21 | 34 nM
2 | CN1Cc2c(C(=O)OC(C)(C)C)ncn2-c2ccc(C#C[Si](C)(C)C)cc2C1=O | 1.03 nM and 0.83 nM
